Source: US6713444B1 (priority 1999, dated 2004)
Ends that are not written are not given here.

Columns and labels:
[1] = target: BttxB (Clostridium botulinum, UniProt P10844); format: biochemical
[2] = rat, in vivo, ip
[3] = tested on: Bttxs; conditions: cited from earlier work

BttxB, sequence (P10844 2-441 limits assumed): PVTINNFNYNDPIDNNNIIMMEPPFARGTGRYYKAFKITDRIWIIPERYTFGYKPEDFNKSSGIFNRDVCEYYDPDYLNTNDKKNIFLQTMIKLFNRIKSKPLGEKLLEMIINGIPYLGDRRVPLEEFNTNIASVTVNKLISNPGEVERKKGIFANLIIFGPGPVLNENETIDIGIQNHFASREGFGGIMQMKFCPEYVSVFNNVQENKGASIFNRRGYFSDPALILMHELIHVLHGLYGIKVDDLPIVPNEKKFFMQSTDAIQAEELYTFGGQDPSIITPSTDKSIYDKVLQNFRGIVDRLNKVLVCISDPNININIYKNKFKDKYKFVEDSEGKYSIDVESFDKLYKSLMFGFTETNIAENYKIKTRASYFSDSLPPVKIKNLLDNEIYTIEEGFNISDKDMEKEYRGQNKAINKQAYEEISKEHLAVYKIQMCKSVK

With Substance P [reference compound] the “substrate of BttxB” value [1] was “not a substrate”.

For `CC(C)C[C@H](NC(=O)CNC(=O)[C@H](C)NC(=O)[C@H](CCCNC(=N)N)NC(=O)[C@H](CO)NC(=O)[C@H](CO)NC(=O)[C@H](CCCNC(=N)N)NC(=O)[C@@H](NC(=O)[C@H](CCCCN)NC(=O)[C@H](C)NC(=O)[C@H](CCCCN)NC(=O)[C@H](C)NC(=O)[C@H](CCCNC(=N)N)NC(=O)[C@@H](NC(=O)[C@H](CCCCN)NC(=O)CNC(=O)CNC(=O)[C@H](CCC(N)=O)NC(=O)[C@H](CCCCN)NC(=O)CNC(=O)[C@H](CCCNC(=N)N)NC(=O)CNC(=O)[C@H](C)N)C(C)C)[C@@H](C)O)C(=O)N[C@@H](CCC(N)=O)C(=O)N[C@@H](Cc1ccccc1)C(=O)N1CCC[C@H]1C(=O)N[C@H](C(=O)NCC(=O)N[C@@H](CCCNC(=N)N)C(=O)N[C@H](C(=O)N[C@@H](Cc1c[nH]cn1)C(=O)N[C@@H](CCCNC(=N)N)C(=O)N[C@@H](CC(C)C)C(=O)N[C@@H](CC(C)C)C(=O)N[C@@H](CCCNC(=N)N)C(=O)N[C@@H](CCCCN)C(=O)NCC(=O)N[C@@H](CC(N)=O)C(=O)N[C@@H](Cc1ccc(O)cc1)C(=O)O)C(C)C)C(C)C` [Buforin I], the “inhibition of BttxB endoprotease activity (in words)” value [1] was “dose-dependency and competitively inhibits”, the “substrate of BttxB” value [1] was “not to be a substrate” and the “Plateau (time to reach maximal-plateau level)” value [2] was at most 40 min. The “time the maximal-plateau level was maintained” value [2] was “up to 4 h” and the “time to reach ½ the absorbed maximal value” [2] was 7.7 min.

For TRSRAKGLQFPGLLVHRKGNY [OSP], the “inhibition of BttxB endoprotease activity (in words)” value [1] was “inhibition”.

In the case of “ThrArgSerSerArgAlaGlyLeuGlnPheProValGlyArgValHisArgLerLeuArgLysGlyAsnTyr [Peptide 24]”, the “effectiveness as inhibitor of BttxB activity relative to B-I” value [1] is reported as “about 25%” and the “substrate of BttxB” value [1] is reported as “not substrates”.

In the case of `CC(C)C[C@H](NP(=O)(O)O[C@@H]1O[C@@H](C)[C@H](O)[C@@H](O)[C@H]1O)C(=O)N[C@@H](Cc1c[nH]c2ccccc12)C(=O)O` [phosphoramidon], the “inhibition of Bttxs (in words)” value [3] is listed as “not effective inhibitors”.

For “AlaGlyArgGlyLysGlnGlyGlyLysValArgAlaLysAlaLysThrArgSerSerArgAlaGlyLeuGlnPheProValGlyArgValHisArgLeuLeuArglys [Peptide 36]”, the “effectiveness as inhibitor of BttxB activity relative to B-I” value [1] was “about 50%” and the “substrate of BttxB” value [1] was “not substrates”.

In the case of `C[C@H](CS)C(=O)N1CCC[C@H]1C(=O)O` [captopril], the “inhibition of Bttxs (in words)” value [3] is listed as “not effective inhibitors”.
